Measurements reported in US5164388A, “Heterocyclic peptide renin inhibitors” (Abbott Laboratories, priority 1991, dated 1992).

Biological target: T1, human renal renin (Homo sapiens, UniProt P00797)
T1 construct: human renal renin, free from acid proteolytic activity; from tissue
T1 sequence (P00797 67-406): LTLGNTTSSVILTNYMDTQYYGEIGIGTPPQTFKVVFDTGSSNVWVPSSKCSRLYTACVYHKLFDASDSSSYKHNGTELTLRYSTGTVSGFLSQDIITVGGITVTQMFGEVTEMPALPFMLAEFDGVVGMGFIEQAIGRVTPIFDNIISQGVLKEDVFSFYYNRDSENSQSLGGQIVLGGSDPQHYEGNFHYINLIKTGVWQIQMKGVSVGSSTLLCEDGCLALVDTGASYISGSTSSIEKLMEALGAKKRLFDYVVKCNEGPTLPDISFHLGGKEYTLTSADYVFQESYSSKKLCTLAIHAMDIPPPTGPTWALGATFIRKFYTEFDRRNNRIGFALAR
Test: Inhibition of human renal renin in vitro (angiotensin I formed, radioimmunoassay)
Format: biochemical
Details: human angiotensinogen substrate, 37 degrees C., pH 6.0
Method: The novel compounds of the present invention are also useful for treating congestive heart failure. […] At the end of the incubation, the amount of angiotensin I formed is measured by radioimmunoassay and the molar concentration required to cause 50% inhibition, expressed as the IC50, is calculated.

Compound: CC(C)C[C@H](O)[C@H](O)[C@H](CC1CCCCC1)NC(=O)[C@H](Cc1cnc[nH]1)N1CC[C@H](Cc2ccccc2)C1=O [Example 73, (2S)-2-(Imidazol-4-ylmethyl)-2-((3S)-phenylmethyl-2-oxo-pyrrolidin-1-yl)acetic acid amide of (2S,3R,4S)-2-amino-1-cyclohexyl-3,4-dihydroxy-6-methylheptane]
- IC50: 0.067 µM

Compound: Cc1ccc(S(=O)(=O)N[C@]2(Cc3ccccc3)CCCN([C@@H](Cc3c[nH]cn3)C(=O)N[C@@H](CC3CCCCC3)[C@@H](O)[C@@H](O)CC(C)C)C2=O)cc1 [Example 156]
- IC50: 0.0014 µM

Compound: CCN1CC(C(O)C(CC2CCCCC2)NC(=O)C(Cc2nccn2C(=O)OC(C)(C)C)N2CCN(S(=O)(=O)N3CCN(C)CC3)C(Cc3ccccc3)C2=O)OC1=O [Example 142, 3-(3N-tert-butyloxycarbonyl-2-imidazolyl)-2-(3R-benzyl-4-N-(N-methylpiperazyl)-sulfonyl-2-keto-piperazin-1-yl)-propoionic acid Amide of (2'S,1'R,5S)-3-Ethyl-5-(1'-hydroxy-2'-amino-3'-cyclohexylpropyl)oxazolidin-2-one]
- IC50: 0.005 µM

Compound: CCCCC(C(=O)N[C@@H](CC1CCCCC1)[C@@H](O)[C@@H](O)CC(C)C)N1CCN(C(=O)OC(C)(C)C)[C@@H](Cc2ccccc2)C1 (stereo partly drawn) [Example 34A, 2-(3S-Benzyl-4-N-tert-butyloxycarbonyl-piperazin-1-yl)-hexanoic acid Amide of 2(S)-Amino-1-cyclohexyl-3(R),4(S)-dihydroxy-6-methylheptane]
- IC50: 0.1 µM

Compound: CCCC[C@@H](C(=O)N[C@@H](CC1CCCCC1)[C@@H](O)[C@@H](O)CC(C)C)N1CCN(C(=O)N(C)CCOCOC)[C@H](Cc2ccccc2)C1=O [Example 48, 2(S)-(3R-Benzyl-4-N-(N-methyl-N-(methoxymethoxyethyl)-aminocarbonyl)-2-keto-piperazin-1-yl)-hexanoic acid Amide of 2(S)-Amino-1-cyclohexyl-3(R),4(S)-dihydroxy-6-methylheptane]
- IC50: 0.022 µM

Compound: CCCCC(C(=O)N[C@@H](CC1CCCCC1)[C@@H](O)[C@@H](O)CC(C)C)N1CCCC(Cc2ccccc2)C1=O (mixture of isomers) [Example 56A, 2(RS)-(3-Benzyl-2-oxo-1-piperidin-1-yl)-hexanoic acid Amide of 2(S)-Amino-1-cyclohexyl-3(R),4(S)-dihydroxy-6-heptane]
- IC50: 0.41 µM

Compound: CC(C)C[C@H](O)[C@H](O)[C@H](CC1CCCCC1)NC(=O)[C@@H](Cc1c[nH]cn1)N1CCN(C(=O)OC(C)(C)C)[C@H](Cc2ccccc2)C1=O [Example 45, 3R-(4-Imidazolyl)-2(R)-(3R-benzyl-4-N-tert-butyloxycarbonyl-2-keto-piperazin-1-yl)-propionic acid Amide of 2(S)-Amino-1-cyclohexyl-3(R),4(S)-dihydroxy-6-methylheptane]
- IC50: 0.013 µM

Compound: CC(C)C[C@H](O)[C@H](O)[C@H](CC1CCCCC1)NC(=O)[C@H](Cc1cnc[nH]1)N1C[C@H](Cc2ccccc2)N(CC(C)C)C1=O [Example 118, (2S)-2-(Imidazol-4-ylmethyl)-2-(3-isobutyl-(4S)-phenylmethylimidazolidin-2-one-1-yl)acetic Acid Amide of (2)-Amino-1-cyclohexyl-3(R),4(S)-dihydroxy-6-methylheptane]
- IC50: 0.15 µM

Compound: CC(C)C[C@H](O)[C@H](O)[C@H](CC1CCCCC1)NC(=O)[C@H](Cc1c[nH]cn1)N1C[C@H](Cc2ccccc2)NC1=O [Example 120, (2S)-2-(Imidazol-4-ylmethyl)-2-((4S)-phenylmethylimidazolidin-2-one-1-yl)acetic Acid Amide of (2S)-Amino-1-cyclohexyl-3(R),4(S)-dihydroxy-6-methylheptane]
- IC50: 0.65 µM

Compound: CCCCC(C(=O)N[C@@H](CC1CCCCC1)[C@@H](O)[C@@H](O)CC(C)C)N1CCN(C(=O)N(C)C)[C@H](Cc2ccccc2)C1 (stereo partly drawn) [Example 35A, 2-(3R-Benzyl-4-N-dimethylaminocarbonyl-piperazin-1-yl)-hexanoic acid Amide of 2(S)-Amino-1-cyclohexyl-3(R),4(S)-dihydroxy-6-methylheptane]
- IC50: 0.091 µM
